Marks after values point to notes of the source that are not given here.
Assays:
Bcl-xL [1] = molecular target: T1, Bcl-xL (Homo sapiens, UniProt Q07817, DEL45-84); experiment: STD-NMR (saturation transfer difference) spectra on Bcl-xL/ligand complexes; format: binding
T1 construct: deletion mutant of Bcl-xL (that lacks the putative carboxy-terminal transmembrane region and residues 49-88) was used; His tag (C); made in house; host or cells: E. coli BL21(DE3)
Experimental: A sample of unlabeled Bcl-xL as well as samples of perdeuterated Bcl-xL that were selectively protonated at the specific amino acids Arg, Tyr, Leu, Ile, and Met were prepared in accordance with the procedures of Example 1. Samples of 200 uM 4-(4-fluorophenyl)benzoic acid (3, Array), [drawing 1]
(§1) 500 uL of the ligand solution was transferred to each of 8 NMR tubes (Wilmad). The protein solutions were then added to the NMR tubes to a final protein concentration of 40 uM in the following manner: Sample 1: unlabeled Bcl-xL; Sample 2: U-^2H-Bcl-xL; Sample 3: U-^2H-{^1H-R}-Bcl-xL; Sample 4: U-^2H-{^1H-Y}-Bcl-xL; Sample 5: U-^2H-{^1H-L}-Bcl-xL; Sample 6: U-2H-{^1H-I}-Bcl-xL; Sample 7: U-^2H-{^1H-M}-Bcl-xL; Sample 8: No protein.
STD-NMR spectra (Mayer and Meyer, J. Am. Chem. Soc. 2001, 123, 6108-6117) were determined on each of the eight samples. All NMR experiments were performed at 300K on a Bruker Avance DRX500 system equipped with a CryoProbe. The pulse sequence for the ID STD-NMR spectra was identical to that used by Mayer and Meyer (2001) except that a CPMG T2-filter was used instead of a T1p-filter to remove background protein resonances. Subtraction of the on- and off-resonance spectra was performed internally and a WATERGATE sequence was used for suppression of the residual solvent signal. On-resonance irradiation of the protein was performed by using a train of Gauss-shaped pulses of 2.5 ms length separated by a 2.5 ms delay, and alternating on-resonance irradiation was applied at 0.8 and 3.0 ppm. Off-resonance irradiation was applied at −10.0 ppm. 280 shaped pulses were used in the pulse train, leading to a total saturation time of 1.4 s. All spectra were acquired with a 100 ms T2-filter, 1024 complex points, 1024 scans, a ^1H sweep width of 8333 Hz, and a total recycle time of 2.0 s.
All NMR spectra were processed and analyzed on Silicon Graphics computers using standard protocols well-known in the art. STD-NMR spectra for biaryl 3 in the presence of unlabeled Bcl-xL (Sample 1), U-^2H-Bcl-xL (Sample 2), and no protein are shown in FIG. 5. […] Therefore, the signal intensity for each resonance of the biaryl 3 in the presence of unlabeled and perdeuterated protein was taken as the maximum and minimum intensity, respectively, for the NOE in the presence of the selectively protonated samples. The intensity of the NOEs could then be calculated using the following equation, [formula]
where I(norm) is the normalized intensity in the STD-NMR spectrum for a given biaryl resonance, and I(SL), I(^2H), and I(^1H) are the intensities of the resonance in the presence of the selectively protonated, perdeuterated, and unlabeled protein, respectively. The normalized NOE intensities can be visualized by simple subtraction of the STD-NMR spectrum of the ligand in the presence of deuterated protein from each of the selectively protonated samples. In these spectra, it is clearly seen that an arginine residue is in close contact with the benzoic acid portion of 3 (magnetization transfer to HA and HB/C), but not the fluorophenyl portion. It is also clear that a tyrosine and leucine residue is in contact with the fluorophenyl portion of 3 (magnetization transfer to HD and HB/C), but not the benzoic acid portion. Spectra shown in (E) and (F) indicate that no portion of the biaryl is in contact with any isoleucine or methionine residues.
These NOE intensities were then converted into distance restraints for use in structural calculations in the following manner. For any given amino acid type and ligand resonance, normalized NOE intensities less than 5% were treated as having no interaction. Therefore, distances between that ligand atom and all protons on all amino acids of that specific type were set at greater than 5 Å. For NOE intensities greater than 15%, ambiguous distance restraints were assigned. […]

Bcl-xL [2] = molecular target: Bcl-xL (Homo sapiens, UniProt Q07817); experiment: NMR-based screening; format: binding; settings: independently determined
Bcl-xL (Homo sapiens, UniProt Q07817), sequence (Q07817 whole entry): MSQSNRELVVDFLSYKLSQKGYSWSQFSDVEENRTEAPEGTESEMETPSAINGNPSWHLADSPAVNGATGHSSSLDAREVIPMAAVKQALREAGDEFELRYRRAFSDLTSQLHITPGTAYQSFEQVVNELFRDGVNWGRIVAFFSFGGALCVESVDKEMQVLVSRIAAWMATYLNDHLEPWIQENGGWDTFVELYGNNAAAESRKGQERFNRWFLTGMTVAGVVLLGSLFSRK
Experimental: as §1

[3] = ligand proton HA, Sample 1 Unlabeled Bcl-xL
[4] = ligand proton HA, Sample 2 U-2H-Bcl-xL
[5] = ligand proton HD, Sample 1 Unlabeled Bcl-xL
[6] = ligand proton HD, Sample 2 U-2H-Bcl-xL
[7] = ligand protons HB/HC, Sample 1 Unlabeled Bcl-xL
[8] = ligand protons HB/HC, Sample 2 U-2H-Bcl-xL

T1 sequence (Q07817 with tags, fused parts or gaps DEL45-84 limits assumed): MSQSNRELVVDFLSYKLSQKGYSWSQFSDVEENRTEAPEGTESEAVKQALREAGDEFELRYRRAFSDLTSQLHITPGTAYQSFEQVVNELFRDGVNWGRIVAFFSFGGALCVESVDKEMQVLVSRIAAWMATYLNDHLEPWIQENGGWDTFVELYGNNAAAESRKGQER

O=C(O)c1ccc(-c2ccc(F)cc2)cc1 [biaryl 3, 4-(4-fluorophenyl)benzoic acid]
Normalized NOE intensity (Bcl-xL [1]; HA protons, in the presence of U-2H-{1H-Y}-Bcl-xL): 3%
Normalized NOE intensity (Bcl-xL [1]; HD protons, in the presence of U-2H-{1H-Y}-Bcl-xL): 22%
Distance restraint derived from the NOE intensity data (Bcl-xL [1]; ligand proton HA to arginine protons, Sample 3 U-2H-{1H-R}-Bcl-xL): <4^a Å
Distance restraint derived from the NOE intensity data (Bcl-xL [1]; ligand proton HA to isoleucine protons, Sample 6 U-2H-{1H-I}-Bcl-xL): >5 Å
Distance restraint derived from the NOE intensity data (Bcl-xL [1]; ligand proton HA to methionine protons, Sample 7 U-2H-{1H-M}-Bcl-xL): >5 Å
Distance restraint derived from the NOE intensity data (Bcl-xL [1]; ligand proton HA to tyrosine protons, Sample 4 U-2H-{1H-Y}-Bcl-xL): >5 Å
Actual NOE intensity (Bcl-xL [1]; [3]): (175)
Normalized NOE intensity (Bcl-xL [1]; [3]): 100^a
Actual NOE intensity (Bcl-xL [1]; [4]): (17)
Normalized NOE intensity (Bcl-xL [1]; [4]): 0
Actual NOE intensity (Bcl-xL [1]; ligand proton HA, Sample 3 U-2H-{1H-R}-Bcl-xL): (57)
Actual NOE intensity (Bcl-xL [1]; ligand proton HA, Sample 4 U-2H-{1H-Y}-Bcl-xL): (22)
Actual NOE intensity (Bcl-xL [1]; ligand proton HA, Sample 5 U-2H-{1H-L}-Bcl-xL): (28)
Actual NOE intensity (Bcl-xL [1]; ligand proton HA, Sample 6 U-2H-{1H-I}-Bcl-xL): (18)
Actual NOE intensity (Bcl-xL [1]; ligand proton HA, Sample 7 U-2H-{1H-M}-Bcl-xL): (23)
Distance restraint derived from the NOE intensity data (Bcl-xL [1]; ligand proton HD to leucine protons, Sample 5 U-2H-{1H-L}-Bcl-xL): <3 Å
Actual NOE intensity (Bcl-xL [1]; [5]): (167)
Normalized NOE intensity (Bcl-xL [1]; [5]): 100
Actual NOE intensity (Bcl-xL [1]; [6]): (28)
Normalized NOE intensity (Bcl-xL [1]; [6]): 0
Actual NOE intensity (Bcl-xL [1]; ligand proton HD, Sample 3 U-2H-{1H-R}-Bcl-xL): (40)
Actual NOE intensity (Bcl-xL [1]; ligand proton HD, Sample 4 U-2H-{1H-Y}-Bcl-xL): (59)
Actual NOE intensity (Bcl-xL [1]; ligand proton HD, Sample 5 U-2H-{1H-L}-Bcl-xL): (93)
Actual NOE intensity (Bcl-xL [1]; ligand proton HD, Sample 6 U-2H-{1H-I}-Bcl-xL): (40)
Actual NOE intensity (Bcl-xL [1]; ligand proton HD, Sample 7 U-2H-{1H-M}-Bcl-xL): (45)
Distance restraint derived from the NOE intensity data (Bcl-xL [1]; ligand protons HB/HC to arginine protons, Sample 3 U-2H-{1H-R}-Bcl-xL): <5 Å
Distance restraint derived from the NOE intensity data (Bcl-xL [1]; ligand protons HB/HC to isoleucine protons, Sample 6 U-2H-{1H-I}-Bcl-xL): >5 Å
Distance restraint derived from the NOE intensity data (Bcl-xL [1]; ligand protons HB/HC to leucine protons, Sample 5 U-2H-{1H-L}-Bcl-xL): <5 Å
Distance restraint derived from the NOE intensity data (Bcl-xL [1]; ligand protons HB/HC to methionine protons, Sample 7 U-2H-{1H-M}-Bcl-xL): >5 Å
Actual NOE intensity (Bcl-xL [1]; [7]): (200)
Normalized NOE intensity (Bcl-xL [1]; [7]): 100
Actual NOE intensity (Bcl-xL [1]; [8]): (32)
Normalized NOE intensity (Bcl-xL [1]; [8]): 0
Actual NOE intensity (Bcl-xL [1]; ligand protons HB/HC, Sample 3 U-2H-{1H-R}-Bcl-xL): (70)
Actual NOE intensity (Bcl-xL [1]; ligand protons HB/HC, Sample 4 U-2H-{1H-Y}-Bcl-xL): (49)
Actual NOE intensity (Bcl-xL [1]; ligand protons HB/HC, Sample 5 U-2H-{1H-L}-Bcl-xL): (71)
Actual NOE intensity (Bcl-xL [1]; ligand protons HB/HC, Sample 6 U-2H-{1H-I}-Bcl-xL): (30)
Actual NOE intensity (Bcl-xL [1]; ligand protons HB/HC, Sample 7 U-2H-{1H-M}-Bcl-xL): (30)
binding to Bcl-xL (NMR-based screening) (Bcl-xL [2]): ligand for Bcl-xL

From patent US20040038216A1, “Method for the structural determination of ligands bound to macromolecular targets by nuclear magnetic resonance” (priority 2002, published 2004)
